The text below walks through data of US7786116B2, “2-amino-quinoline derivatives useful as inhibitors of β-secretase (BACE)” (Janssen Pharmaceutica N.V., priority 2008, dated 2010).

pIC50: −log10 of the molar value.

In the test the target is human BACE-1 (Homo sapiens, UniProt P56817). Nature of the test: in vitro BACE Assay-1 (CEREP, fluorogenic substrate). In kind it is biochemical. As to conditions: for pIC50: recombinant enzyme, pH 4.5, 60 min at 37° C.; for inhibition at 10 µM / % Inh @ 10 μM: test compound at 10 μM. As for the experimental part: This assay was run by CEREP (Catalog Ref. 761-B, Referred to SOP No. 1C131; ERMOLIEFF, J., LOY, J. A., KOELSCH, G. and TANG, J., Proteolytic activation of recombinant pro-memapsin 2 (pro-BACE) studied with new fluorogenic substrates, Biochemistry, (2000) Vol. 39, p. 12450).
human BACE-1, sequence (P56817 46-501): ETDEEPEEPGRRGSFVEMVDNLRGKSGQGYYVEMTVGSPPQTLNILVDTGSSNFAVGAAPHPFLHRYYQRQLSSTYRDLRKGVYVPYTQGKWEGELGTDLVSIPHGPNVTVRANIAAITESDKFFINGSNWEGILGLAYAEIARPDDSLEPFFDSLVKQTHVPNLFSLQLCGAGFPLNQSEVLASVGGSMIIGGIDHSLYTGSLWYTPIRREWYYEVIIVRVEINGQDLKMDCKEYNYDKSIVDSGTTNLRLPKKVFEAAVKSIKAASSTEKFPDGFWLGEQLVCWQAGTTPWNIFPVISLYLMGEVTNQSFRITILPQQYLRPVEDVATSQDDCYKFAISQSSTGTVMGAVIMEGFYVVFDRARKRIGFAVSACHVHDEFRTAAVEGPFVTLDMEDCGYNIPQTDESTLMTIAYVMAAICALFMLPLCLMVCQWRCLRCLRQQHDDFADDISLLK
More specifically the assay, run at 50 μL in a 96 well plate, evaluated the effect of test compound on the activity of the human BACE-1 quantified by measuring the formation of Mca-S-E-V-N-L-NH2 from Mca-S-E-V-N-L-D-A-E-F-R-K(Dnp)-R—R—NH2, using a recombinant enzyme.
The test compound, reference compound or water (control) was added to a buffer containing 0.09 M sodium acetate (pH 4.5) and 0.25 μg BACE-1. Compound interference with the fluorimetric detection method due to autofluorescence was then checked by measurements at the wavelengths defined to evaluate the enzyme activity. Thereafter, the reaction was initiated by adding 7.5 μM of the substrate Mca-S-E-V-N-L-D-A-E-F-R-K(Dnp)-R—R—NH2 and the mixture was incubated for 60 min at 37° C. For control basal measurement, the substrate was omitted from the reaction mixture. Immediately after the incubation, the fluorescence intensity emitted by the reaction product Mca-S-E-V-N-L-NH2 was measured at λex=320 nm and λem=405 nm using a microplate reader (Ultra, Tecan). The standard inhibitory reference compound was OM99-2, which was tested in each experiment at several concentrations to obtain an inhibition curve from which its IC50 value was calculated.
Representative compounds of the present invention were tested in the assay as described above, with results as listed in Table 3, below.

Consider `CC(C)(C)CCN(CCN1CCOCC1)C(=O)CCC(c1cc2cc(-c3ccccc3F)ccc2nc1N)C1CCOCC1` (centres unmarked) [Compound 47, 4-[2-Amino-6-(2-fluoro-phenyl)-quinolin-3-yl]-N-(3,3-dimethyl-butyl)-N-(2-morpholin-4-yl-ethyl)-4-(tetrahydro-pyran-4-yl)-butyramide], for which the pIC50 was 6.43 and 10 µM produced 58% inhibition. As to `Cn1ccnc1CN(CCC(C)(C)C)C(=O)CCC(c1cc2cc(-c3cccc4cc[nH]c34)ccc2nc1N)C1CCOCC1` (centres unmarked) [Compound 49], the “% Inh @ 10 μM” value was found to be 99%. Same read-out and setting: under `CCOc1ccc(-c2ccc3nc(N)c(C(CCC(=O)N(CCC(C)(C)C)Cc4nccn4C)C4CCOCC4)cc3c2)cc1` (centres unmarked) [Compound 50] stands 22%. For the compound `CCOc1ccccc1-c1ccc2nc(N)c(C(CCC(=O)N(CCC(C)(C)C)Cc3nccn3C)C3CCOCC3)cc2c1` (centres unmarked) [Compound 51, 4-[2-Amino-6-(2-ethoxy-phenyl)-quinolin-3-yl]-N-(3,3-dimethyl-butyl)-N-(1-methyl-1H-imidazol-2-ylmethyl)-4-(tetrahydro-pyran-4-yl)-butyramide], the negative-log IC50 (pIC50) is 6.49 and the inhibition at 10 µM was 99%. `COc1cc2nc(N)c(C(CCCN(CCN3CCOCC3)C3CCCCC3)C3CCOCC3)cc2cc1-c1ccccc1F` (centres unmarked) [Compound 52]: the pIC50 is 5.44 and the inhibition at 10 µM is 55%. On the same counts, the results for `COc1cc2nc(N)c(C(CCC(=O)N(CCN3CCOCC3)C3CCCCC3)C3CCOCC3)cc2cc1-c1ccccc1F` (centres unmarked) [Compound 53] are 5.66 and 55%.

In the case of `Cn1ccnc1CN(CCC(C)(C)C)C(=O)CCC(c1cc2cc(-c3cccc(C(F)(F)F)c3)ccc2nc1N)C1CCOCC1` (centres unmarked) [Compound 54], the “% Inh @ 10 μM” value is 8%. Turning to `Cn1ccnc1CN(CCC(C)(C)C)C(=O)CCC(c1cc2cc(-c3ccccc3C(F)(F)F)ccc2nc1N)C1CCOCC1` (centres unmarked) [Compound 55], the pIC50 was 5.62 and the “% Inh @ 10 μM” value was determined as 90%. With `Cn1ccnc1CN(CCC(C)(C)C)C(=O)CCC(c1cc2cc(-c3ccccc3OC(F)(F)F)ccc2nc1N)C1CCOCC1` (centres unmarked) [Compound 56], the “% Inh @ 10 μM” value stood at 73%.

The pIC50 is −log10 of the IC50, conventionally taken in molar units. Broadly, the inhibition is the relative decrease from the control value, in per cent.
